From PMC9848257, “Design and synthesis of novel rigid dibenzo[b,f]azepines through ring closure technique as promising anticancer candidates against leukaemia and acting as selective topoisomerase II inhibitors and DNA intercalators” (Journal of Enzyme Inhibition and Medicinal Chemistry, 2023)

Tests used:
Type in all cases: cell-based
TK-10 = assay: NCI-60 one-dose screen, TK-10; details: Homo sapiens; TK-10, renal cancer; single dose 10 μM; read-out: Growth inhibition %
Protocol: (§1) Anti-proliferative effects of the counterparts 4a–g and 5a–g were screened against 60 human cancer cell lines, following the Developmental Therapeutics Program protocol, National Cancer Institute[35].
(§2) The anti-tumour activity of the fourteen synthesised congeners was investigated at the NCI against a panel of 60 cancer cell lines (NCI-60 Cell One-Dose Screen). The tested dibenzo[b,f]azepine derivatives were screened at a single dose level (10 μM), Table 1.

HCT-116 = assay: NCI-60 one-dose screen, HCT-116; details: Homo sapiens; HCT-116, colon cancer; single dose 10 μM; read-out: Growth inhibition %
Protocol: as §1, §2

RPMI-8226 = assay: NCI-60 one-dose screen, RPMI-8226; details: Homo sapiens; RPMI-8226, leukaemia; single dose 10 μM; read-out: Growth inhibition %
Protocol: as §1, §2

A549-ATCC = assay: NCI-60 one-dose screen, A549-ATCC; details: Homo sapiens, non-small cell lung cancer, single dose 10 μM, read-out: Growth inhibition %
Protocol: as §1, §2

MDA-MB-435 = assay: NCI-60 one-dose screen, MDA-MB-435; details: Homo sapiens; MDA-MB-435, melanoma; single dose 10 μM; read-out: Growth inhibition %
Protocol: as §1, §2

SW-620 = assay: NCI-60 one-dose screen, SW-620; details: Homo sapiens; SW-620, colon cancer; single dose 10 μM; read-out: Growth inhibition %
Protocol: as §1, §2

SR = assay: NCI-60 one-dose screen, SR; details: Homo sapiens, leukaemia, single dose 10 μM, read-out: Growth inhibition %
Protocol: as §1, §2

SK-MEL-2 = assay: NCI-60 one-dose screen, SK-MEL-2; details: Homo sapiens; SK-MEL-2, melanoma; single dose 10 μM; read-out: Growth inhibition %
Protocol: as §1, §2

SF-268 = assay: NCI-60 one-dose screen, SF-268; details: Homo sapiens; SF-268, CNS cancer; single dose 10 μM; read-out: Growth inhibition %
Protocol: as §1, §2

IGROV1 = assay: NCI-60 one-dose screen, IGROV1; details: Homo sapiens, IGROV-1; IGROV1, ovarian cancer; single dose 10 μM; read-out: Growth inhibition %
Protocol: as §1, §2

SNB-19 = assay: NCI-60 one-dose screen, SNB-19; details: Homo sapiens; SNB-19, CNS cancer; single dose 10 μM; read-out: Growth inhibition %
Protocol: as §1, §2

SK-OV-3 = assay: NCI-60 one-dose screen, SK-OV-3; details: Homo sapiens; SK-OV-3, ovarian cancer; single dose 10 μM; read-out: Growth inhibition %
Protocol: as §1, §2

OVCAR-4 = assay: NCI-60 one-dose screen, OVCAR-4; details: Homo sapiens; OVCAR-4, ovarian cancer; single dose 10 μM; read-out: Growth inhibition %
Protocol: as §1, §2

HT29 = assay: NCI-60 one-dose screen, HT29; details: Homo sapiens, HT-29; HT29, colon cancer; single dose 10 μM; read-out: Growth inhibition %
Protocol: as §1, §2

MALME-3M = assay: NCI-60 one-dose screen, MALME-3M; details: Homo sapiens, melanoma, single dose 10 μM, read-out: Growth inhibition %
Protocol: as §1, §2

OVCAR-3 = assay: NCI-60 one-dose screen, OVCAR-3; details: Homo sapiens; OVCAR-3, ovarian cancer; single dose 10 μM; read-out: Growth inhibition %
Protocol: as §1, §2

HCC-2998 = assay: NCI-60 one-dose screen, HCC-2998; details: Homo sapiens; HCC-2998, colon cancer; single dose 10 μM; read-out: Growth inhibition %
Protocol: as §1, §2

DU-145 = assay: NCI-60 one-dose screen, DU-145; details: Homo sapiens; DU-145, prostate cancer; single dose 10 μM; read-out: Growth inhibition %
Protocol: as §1, §2

NCI-H226 = assay: NCI-60 one-dose screen, NCI-H226; details: Homo sapiens; NCI-H226, non-small cell lung cancer; single dose 10 μM; read-out: Growth inhibition %
Protocol: as §1, §2

CAKI-1 = assay: NCI-60 one-dose screen, CAKI-1; details: Homo sapiens; CAKI-1, renal cancer; single dose 10 μM; read-out: Growth inhibition %
Protocol: as §1, §2

NCI/ADR-RES = assay: NCI-60 one-dose screen, NCI/ADR-RES; details: Homo sapiens, ovarian cancer, single dose 10 μM, read-out: Growth inhibition %
Protocol: as §1, §2

SK-MEL-28 = assay: NCI-60 one-dose screen, SK-MEL-28; details: Homo sapiens; SK-MEL-28, melanoma; single dose 10 μM; read-out: Growth inhibition %
Protocol: as §1, §2

KM12 = assay: NCI-60 one-dose screen, KM12; details: Homo sapiens; KM12, colon cancer; single dose 10 μM; read-out: Growth inhibition %
Protocol: as §1, §2

UO-31 = assay: NCI-60 one-dose screen, UO-31; details: Homo sapiens; UO-31, renal cancer; single dose 10 μM; read-out: Growth inhibition %
Protocol: as §1, §2

SMILES | inhibition at 10 µM (TK-10) [%] | inhibition at 10 µM (HCT-116) [%] | inhibition at 10 µM (RPMI-8226) [%] | inhibition at 10 µM (A549-ATCC) [%] | inhibition at 10 µM (MDA-MB-435) [%] | inhibition at 10 µM (SW-620) [%] | inhibition at 10 µM (SR) [%] | inhibition at 10 µM (SK-MEL-2) [%] | inhibition at 10 µM (SF-268) [%] | inhibition at 10 µM (IGROV1) [%] | inhibition at 10 µM (SNB-19) [%] | inhibition at 10 µM (SK-OV-3) [%] | inhibition at 10 µM (OVCAR-4) [%] | inhibition at 10 µM (HT29) [%] | inhibition at 10 µM (MALME-3M) [%] | inhibition at 10 µM (OVCAR-3) [%] | inhibition at 10 µM (HCC-2998) [%] | inhibition at 10 µM (DU-145) [%] | inhibition at 10 µM (NCI-H226) [%] | inhibition at 10 µM (CAKI-1) [%] | other results
O=C(NNC(=O)N1c2ccccc2C=Cc2ccccc21)c1ccc([N+](=O)[O-])cc1 [Compound 4e, N′-(4-Nitrobenzoyl)-5H-dibenzo[b,f]azepine-5-carbohydrazide] | 10 | < 10 | < 10 | < 10 | < 10 | < 10 | < 10 | < 10 | < 10 | < 10 | < 10 | < 10 | < 10 | < 10 | < 10 | < 10 | < 10 | < 10 | < 10 | < 10 | inhibition at 10 µM (NCI/ADR-RES): < 10%; inhibition at 10 µM (SK-MEL-28): < 10%; inhibition at 10 µM (KM12): < 10%; inhibition at 10 µM (UO-31): < 10%
O=C(NNC(=O)N1c2ccccc2C=Cc2ccccc21)c1ccc(Cl)cc1 [Compound 4c, N′-(4-Chlorobenzoyl)-5H-dibenzo[b,f]azepine-5-carbohydrazide] | 13.2 | < 10 | < 10 | < 10 | < 10 | < 10 | < 10 | < 10 | < 10 | < 10 | < 10 | < 10 | < 10 | < 10 | < 10 | < 10 | < 10 | < 10 | < 10 | < 10 | inhibition at 10 µM (NCI/ADR-RES): < 10%; inhibition at 10 µM (SK-MEL-28): < 10%; inhibition at 10 µM (KM12): < 10%; inhibition at 10 µM (UO-31): < 10%
O=C(Cc1ccccc1)NNC(=O)N1c2ccccc2C=Cc2ccccc21 [Compound 4g, N′-(2-Phenylacetyl)-5H-dibenzo[b,f]azepine-5-carbohydrazide] | < 10 | < 10 | < 10 | < 10 | < 10 | < 10 | < 10 | < 10 | < 10 | < 10 | < 10 | < 10 | < 10 | < 10 | < 10 | < 10 | < 10 | < 10 | < 10 | < 10 | inhibition at 10 µM (NCI/ADR-RES): < 10%; inhibition at 10 µM (SK-MEL-28): < 10%; inhibition at 10 µM (KM12): < 10%; inhibition at 10 µM (UO-31): < 10%
O=C(NNC(=O)N1c2ccccc2C=Cc2ccccc21)c1ccccc1 [Compound 4a, N′-Benzoyl-5H-dibenzo[b,f]azepine-5-carbohydrazide] | < 10 | < 10 | < 10 | < 10 | < 10 | < 10 | < 10 | < 10 | < 10 | < 10 | < 10 | < 10 | < 10 | < 10 | < 10 | < 10 | < 10 | < 10 | < 10 | < 10 | inhibition at 10 µM (NCI/ADR-RES): < 10%; inhibition at 10 µM (SK-MEL-28): < 10%; inhibition at 10 µM (KM12): < 10%; inhibition at 10 µM (UO-31): < 10%
